We go through 15 molecules from patent US8148373B2, “Compounds” (AstraZeneca AB, priority 2008, dated 2012).

Each structure is given as a SMILES string. Counter-ions that a name gives are not always drawn.

Test [1] concerns the target T1, Adrenergic β2 (H292 cells) (Homo sapiens, UniProt P07550).
T1 construct: endogenous in cells; host or cells: H292 cells
In words: Assay for Adrenergic β2 Mediated cAMP Production (concentration response, AlphaScreen cAMP detection). The test is classed as cell-based. The settings on record: for EC50: cAMP production, 60 minutes at room temperature, 300 μM rolipram, read-out: β2 pEC50 (converted); for β2 Intrinsic activity: fraction relative to the maximum activity determined for formoterol. Put shortly:
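H292 cells plated overnight, pre-treated with rolipram (300 μM final) 10 min, then compound 60 min at room temperature in HBSS/10 mM HEPES pH7.4/5 mM glucose, 1% DMSO. Lysate cAMP read by AlphaScreen against a cAMP standard curve; 4-parameter fit gives pEC50 and intrinsic activity as fraction of formoterol maximum.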

Test [2] deals with T2, human muscarinic acetylcholine M3 receptor (M3-ACh) (Homo sapiens, UniProt P20309).
T2 construct: expressed in transfected cells; host or cells: CHO-K1 (Chinese Hamster Ovary) cell membranes
T2 sequence (P20309 whole entry): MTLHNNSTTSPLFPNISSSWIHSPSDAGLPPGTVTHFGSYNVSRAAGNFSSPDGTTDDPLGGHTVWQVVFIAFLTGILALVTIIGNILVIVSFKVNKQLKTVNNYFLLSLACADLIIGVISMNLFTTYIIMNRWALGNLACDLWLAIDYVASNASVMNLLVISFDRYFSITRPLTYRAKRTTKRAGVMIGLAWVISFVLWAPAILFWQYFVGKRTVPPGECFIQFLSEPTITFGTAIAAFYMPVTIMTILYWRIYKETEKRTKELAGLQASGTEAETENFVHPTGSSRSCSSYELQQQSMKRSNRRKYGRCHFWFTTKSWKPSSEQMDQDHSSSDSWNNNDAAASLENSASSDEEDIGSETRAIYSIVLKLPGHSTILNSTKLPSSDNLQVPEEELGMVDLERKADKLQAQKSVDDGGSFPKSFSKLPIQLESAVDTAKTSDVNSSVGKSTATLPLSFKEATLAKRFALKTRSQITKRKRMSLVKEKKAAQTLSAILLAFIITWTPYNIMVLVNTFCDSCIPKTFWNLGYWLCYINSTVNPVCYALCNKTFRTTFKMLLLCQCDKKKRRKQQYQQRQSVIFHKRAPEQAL
In words: Muscarinic 3 Receptor Binding Assay ([3H]NMS competition, SPA). The following applies: for IC50: [3H]NMS 0.1 nM, CHO-K1 cell membranes, 16 hours at room temperature, read-out: M3 pIC50 (converted). The method in brief: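 Competition SPA binding of 0.1 nM [3H]NMS (quarter Kd) to membranes from CHO-K1 cells expressing human M3, in 20 mM HEPES pH 7.4, 5 mM MgCl2, 1% DMSO. Incubated 16 h at room temperature; non-specific binding with 1 µM atropine. pIC50 from 50% reduction of specific binding.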

T1 sequence (P07550 whole entry): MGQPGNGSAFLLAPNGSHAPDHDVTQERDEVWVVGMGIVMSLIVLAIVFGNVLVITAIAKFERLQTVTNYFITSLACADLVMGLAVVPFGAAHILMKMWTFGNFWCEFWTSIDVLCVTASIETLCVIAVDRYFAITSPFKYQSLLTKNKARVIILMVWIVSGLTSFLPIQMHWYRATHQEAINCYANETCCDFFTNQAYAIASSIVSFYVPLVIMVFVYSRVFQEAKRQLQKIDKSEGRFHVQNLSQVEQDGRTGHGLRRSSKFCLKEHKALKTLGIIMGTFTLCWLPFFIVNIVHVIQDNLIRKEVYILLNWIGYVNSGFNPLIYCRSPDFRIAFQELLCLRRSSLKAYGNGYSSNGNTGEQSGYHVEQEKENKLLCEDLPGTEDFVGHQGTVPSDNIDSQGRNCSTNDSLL

With `Cc1nc(C(=O)N2CC(C)(C)OC3(CCN(Cc4cccc(CCNC[C@H](O)c5ccc(O)c6[nH]c(=O)sc56)c4)CC3)C2)cs1` [Example 271, (R)-7-(2-(3-((2,2-Dimethyl-4-(2-methylthiazole-4-carbonyl)-1-oxa-4,9-diazaspiro[5.5]undecan-9-yl)methyl)phenethylamino)-1-hydroxyethyl)-4-hydroxybenzo[d]thiazol-2(3H)-one ditrifluoroacetate], in test [1], the EC50 is 6.31 nM and the “β2 Intrinsic activity” value is listed as 1. In test [2] (read-out: M3 inhibtion at 1 μM (printed in the M3 pIC50 column)), the inhibition at 1 µM came out at 30%.
Turning to `CCc1cc(C(=O)N2CC(C)(C)OC3(CCN(Cc4cccc(CCNC[C@H](O)c5ccc(O)c6[nH]c(=O)ccc56)c4)CC3)C2)cs1` [Example 272, (R)-5-(2-(3-((4-(5-ethylthiophene-3-carbonyl)-2,2-dimethyl-1-oxa-4,9-diazaspiro[5.5]undecan-9-yl)methyl)phenethylamino)-1-hydroxyethyl)-8-hydroxyquinolin-2(1H)-one ditrifluoroacetate], in test [1], the EC50 is 10 nM and the “β2 Intrinsic activity” value is recorded as 1. In test [2], the IC50 was 794 nM.
The matching figures for `CC(C)c1nc(C(=O)N2CCOC3(CCN(Cc4ccc(C(F)(F)F)c(CCNC[C@H](O)c5ccc(O)c6[nH]c(=O)ccc56)c4)CC3)C2)cs1` [Example 273, (R)-8-Hydroxy-5-(1-hydroxy-2-(5-((4-(2-isopropylthiazole-4-carbonyl)-1-oxa-4,9-diazaspiro[5.5]undecan-9-yl)methyl)-2-(trifluoromethyl)phenethylamino)ethyl)quinolin-2(1H)-one ditrifluoroacetate]: 398 nM, 0.5 and 79.4 nM.
The matching figures for `CCC(CC)c1nc(C(=O)N2CCOC3(CCN(Cc4cccc(CCNC[C@H](O)c5ccc(O)c6[nH]c(=O)ccc56)c4)CC3)C2)cs1` [Example 274, (R)-8-Hydroxy-5-(1-hydroxy-2-(3-((4-(2-(pentan-3-yl)thiazole-4-carbonyl)-1-oxa-4,9-diazaspiro[5.5]undecan-9-yl)methyl)phenethylamino)ethyl)quinolin-2(1H)-one ditrifluoroacetate]: 25.1 nM, 1.0 and 2.51 nM.
With `CC(C)c1cc(C(=O)N2CCOC3(CCN(Cc4cccc(CC(C)(C)NC[C@H](O)c5ccc(O)c6[nH]c(=O)ccc56)c4)CC3)C2)cs1` [Example 275, (R)-8-Hydroxy-5-(1-hydroxy-2-(1-(3-((4-(5-isopropylthiophene-3-carbonyl)-1-oxa-4,9-diazaspiro[5.5]undecan-9-yl)methyl)phenyl)-2-methylpropan-2-ylamino)ethyl)quinolin-2(1H)-one ditrifluoroacetate], in test [1], the EC50 is 50.1 nM and the “β2 Intrinsic activity” value came out at 1. In addition, the IC50 in test [2] is 1.58 nM.
For `CC(C)c1cc(C(=O)N2CCOC3(CCN(Cc4cccc(C[C@@H](C)NC[C@H](O)c5ccc(O)c6[nH]c(=O)ccc56)c4)CC3)C2)cs1` [Example 276, 8-Hydroxy-5-((R)-1-hydroxy-2-((R)-1-(3-((4-(5-isopropylthiophene-3-carbonyl)-1-oxa-4,9-diazaspiro[5.5]undecan-9-yl)methyl)phenyl)propan-2-ylamino)ethyl)quinolin-2(1H)-one ditrifluoroacetate] the same measures were 39.8 nM, 1 and 2 nM.
`Cc1nc(C(=O)N2CCOC3(CCN(Cc4cccc(CCOCCC(=O)N(CCNC[C@H](O)c5ccc(O)c6[nH]c(=O)sc56)C5CCCCC5)c4)CC3)C2)cs1` [Example 277, (R)—N-Cyclohexyl-N-(2-(2-hydroxy-2-(4-hydroxy-2-oxo-2,3-dihydrobenzo[d]thiazol-7-yl)ethylamino)ethyl)-3-(3-((4-(2-methylthiazole-4-carbonyl)-1-oxa-4,9-diazaspiro[5.5]undecan-9-yl)methyl)phenylethoxy)propanamide ditrifluoroacetate]: in test [1], the EC50 was 31.6 nM and the “β2 Intrinsic activity” value stood at 0.9. The IC50 in test [2] is 0.1 nM.
For `CC(C)c1nc(C(=O)N2CCOC3(CCN(Cc4csc(CCNC[C@H](O)c5ccc(O)c6[nH]c(=O)sc56)c4)CC3)C2)cs1` [Example 278, (R)-4-hydroxy-7-(1-hydroxy-2-(2-(4-((4-(2-isopropylthiazole-4-carbonyl)-1-oxa-4,9-diazaspiro[5.5]undecan-9-yl)methyl)thiophen-2-yl)ethylamino)ethyl)benzo[d]thiazol-2(3H)-one ditrifluoroacetate] the same measures were 3.98 nM, 1.0 and 0.398 nM.
For `CC(C)c1nc(C(=O)N2CCOC3(CCN(CCCCCCC(C)(C)CCNC[C@H](O)c4ccc(O)c5[nH]c(=O)sc45)CC3)C2)cs1` [Example 279, (R)-4-Hydroxy-7-(1-hydroxy-2-(9-(4-(2-isopropylthiazole-4-carbonyl)-1-oxa-4,9-diazaspiro[5.5]undecan-9-yl)-3,3-dimethylnonylamino)ethyl)benzo[d]thiazol-2(3H)-one formate] the same measures were 316 nM, 0.9 and 7.94 nM.
Consider `CC(CCCCCCCCN1CCC2(CC1)CN(C(=O)c1csc(C(C)C)n1)CCO2)NC[C@H](O)c1ccc(O)c2[nH]c(=O)sc12` (stereo partly drawn) [Example 280, (R)-4-Hydroxy-7-(1-hydroxy-2-(10-(4-(2-isopropylthiazole-4-carbonyl)-1-oxa-4,9-diazaspiro[5.5]undecan-9-yl)decan-2-ylamino)ethyl)benzo[d]thiazol-2(3H)-one formate], for which, in test [1], the EC50 is 5.01 nM and the “β2 Intrinsic activity” value was determined as 1.2. In addition, the IC50 in test [2] was 0.794 nM.
With `CC(C)c1nc(C(=O)N2CCOC3(CCN(CCCSCCCCNC[C@H](O)c4ccc(O)c5[nH]c(=O)sc45)CC3)C2)cs1` [Example 281, (R)-4-Hydroxy-7-(1-hydroxy-2-(4-(3-(4-(2-isopropylthiazole-4-carbonyl)-1-oxa-4,9-diazaspiro[5.5]undecan-9-yl)propylthio)butylamino)ethyl)benzo[d]thiazol-2(3H)-one formate], in test [1], the EC50 is 31.6 nM and the “β2 Intrinsic activity” value stood at 0.8. For the same molecule, in test [2], the IC50 is 1.58 nM.
The matching figures for `CC(C)c1nc(C(=O)N2CCOC3(CCN(CCC[S+]([O-])CCCCNC[C@H](O)c4ccc(O)c5[nH]c(=O)sc45)CC3)C2)cs1` (stereo partly drawn) [Example 282, 4-Hydroxy-7-((1R)-1-hydroxy-2-(4-(3-(4-(2-isopropylthiazole-4-carbonyl)-1-oxa-4,9-diazaspiro[5.5]undecan-9-yl)propylsulfinyl)butylamino)ethyl)benzo[d]thiazol-2(3H)-one formate]: 50.1 nM, 1 and 20 nM.
`CC(CCCCCCCN1CCC2(CC1)CN(C(=O)c1csc(C(C)C)n1)CCO2)CNC[C@H](O)c1ccc(O)c2[nH]c(=O)sc12` (stereo partly drawn) [Example 283, 4-Hydroxy-7-((1R)-1-hydroxy-2-(9-(4-(2-isopropylthiazole-4-carbonyl)-1-oxa-4,9-diazaspiro[5.5]undecan-9-yl)-2-methylnonylamino)ethyl)benzo[d]thiazol-2(3H)-one formate]: in test [1], the EC50 is 79.4 nM and the “β2 Intrinsic activity” value is 1.1. The IC50 in test [2] is 1.26 nM.
Turning to `CC(C)c1cc(C(=O)N2CCOC3(CCN(CCCCCCCNC[C@H](O)c4ccc(O)c5[nH]c(=O)sc45)CC3)C2)cs1` [Example 284, (R)-4-Hydroxy-7-(1-hydroxy-2-(7-(4-(5-isopropylthiophene-3-carbonyl)-1-oxa-4,9-diazaspiro[5.5]undecan-9-yl)heptylamino)ethyl)benzo[d]thiazol-2(3H)-one formate], in test [1], the EC50 was 12.6 nM and the “β2 Intrinsic activity” value is reported as 0.9. Also, the IC50 in test [2] was 2 nM.
For `CC(C)c1nc(C(=O)N2CCOC3(CCN(CCCCCC(C)(C)CCCNC[C@H](O)c4ccc(O)c5[nH]c(=O)sc45)CC3)C2)cs1` [Example 285, (R)-4-Hydroxy-7-(1-hydroxy-2-(9-(4-(2-isopropylthiazole-4-carbonyl)-1-oxa-4,9-diazaspiro[5.5]undecan-9-yl)-4,4-dimethylnonylamino)ethyl)benzo[d]thiazol-2(3H)-one formate] the same measures were 15.8 nM, 1 and 3.98 nM.
